From patent publication US9079886B2, “Substituted triazole derivatives as gamma secretase modulators” (Janssen Pharmaceuticals, Inc., priority 2010, dated 2015)
Where a name gives a salt, the structure may show the parent alone. Read-outs that look alike come from different tables or passages of the source.

Assays:
[1] = test system: Aβ42 and Aβtotal in the soluble fraction of brain homogenates; assay: In vivo Aβ42 lowering: brain soluble Aβ42 and Aβtotal by ELISA after a single oral dose; design: species or system mouse; conditions: dose 30 mg/kg oral dosing, 4 h after dosing; for response vs control in vivo at 30 mg/kg: Mus musculus, po, 4 h
Text: To determine whether acute administration of an Aβ42 lowering agent would reduce Aβ42 levels in vivo, non-transgenic rodents, e.g. mice or rats were used. Animals treated with the Aβ42 lowering agent were examined and compared to those untreated or treated with vehicle and brain levels of soluble Aβ42 and total A13 were quantitated by standard techniques, for example, using ELISA. Treatment periods varied from hours (h) to days and were adjusted based on the results of the Aβ42 lowering once a time course of onset of effect could be established.
A typical protocol for measuring Aβ42 lowering in vivo is shown but it is only one of many variations that could be used to optimize the levels of detectable Aβ. For example, Aβ42 lowering compounds were formulated in 20% of Captisol® (a sulfobutyl ether of β-cyclodextrin) in water or 20% hydroxypropyl β cyclodextrin. The Aβ42 lowering agents were administered as a single oral dose or by any acceptable route of administration to overnight fasted animals. After 4 h, the animals were sacrificed and Aβ42 levels were analysed.
Blood was collected by decapitation and exsanguinations in EDTA-treated collection tubes. Blood was centrifuged at 1900 g for 10 minutes (min) at 4° C. and the plasma recovered and flash frozen for later analysis. The brain was removed from the cranium and hindbrain. The cerebellum was removed and the left and right hemisphere were separated. The left hemisphere was stored at −18° C. for quantitative analysis of test compound levels. The right hemisphere was rinsed with phosphate-buffered saline (PBS) buffer and immediately frozen on dry ice and stored at −80° C. until homogenization for biochemical assays.
Mouse brains from non-transgenic animals were resuspended in 8 volumes of 0.4% DEA (diethylamine)/50 mM NaCl containing protease inhibitors (Roche-11873580001 or 04693159001) per gram of tissue, e.g. for 0.158 g brain, add 1.264 ml of 0.4% DEA. All samples were homogenized in the FastPrep-24 system (MP Biomedicals) using lysing matrix D (MPBio #6913-100) at 6 m/s for 20 seconds. Homogenates were centrifuged at 221.300×g for 50 min. The resulting high speed supernatants were then transferred to fresh eppendorf tubes. Nine parts of supernatant were neutralized with 1 part 0.5 M Tris-HCl pH 6.8 and used to quantify Aβtotal and Aβ42.
To quantify the amount of Aβtotal and Aβ42 in the soluble fraction of the brain homogenates, Enzyme-Linked-Immunosorbent-Assays were used. Briefly, the standards (a dilution of synthetic Aβ1-40 and Aβ-42, Bachem) were prepared in 1.5 ml Eppendorf tube in Ultraculture, with final concentrations ranging from 10000 to 0.3 pg/ml. The samples and standards were co-incubated with HRPO-labelled N-terminal antibody for Aβ42 detection and with the biotinylated mid-domain antibody 4G8 for Aβtotal detection. 50 μl of conjugate/sample or conjugate/standards mixtures were then added to the antibody-coated plate (the capture antibodies selectively recognize the C-terminal end of Aβ42, antibody JRF/cAB42/26, for Aβ42 detection and the N-terminus of Aβ, antibody JRF/rAβ/2, for Aβtotal detection). The plate was allowed to incubate overnight at 4° C. in order to allow formation of the antibody-amyloid complex. Following this incubation and subsequent wash steps the ELISA for Aβ42 quantification was finished by addition of Quanta Blu fluorogenic peroxidase substrate according to the manufacturer's instructions (Pierce Corp., Rockford, Il). A reading was performed after 10 to 15 min (excitation 320 nm/emission 420 nm).
For Aβtotal detection, a Streptavidine-Peroxidase-Conjugate was added, followed 60 min later by an addional wash step and addition of Quanta Blu fluorogenic peroxidase substrate according to the manufacturer's instructions (Pierce Corp., Rockford, Il). A reading was performed after 10 to 15 min (excitation 320 nm/emission 420 nm). […]

[2] = untreated animals (Ctrl) set at 100, read-out: Aβ42 (% vs Ctrl) _Mean
[3] = untreated animals (Ctrl) set at 100, read-out: Aβtotal (% vs Ctrl)_Mean
[4] = untreated animals (Ctrl) set at 100, 30 mg/kg

| Structure (SMILES) | melting point [°C] | other results |
| --- | --- | --- |
| COc1cc(Nc2nc(OC3CCCC(C(F)(F)F)C3)n(C(C)C)n2)ccc1-c1ccnc(C)c1 (centres unmarked) (as salt: HCl) (hydrate or solvate) [Compound 117] | 131.5 | – |
| COc1cc(Nc2nc(-c3cccc(C(F)(F)F)c3)n(C(C)C)n2)ccc1-c1ccnc(C)c1 [Compound 136] | 221.9 | – |
| Cc1cc(-c2ccc(Nc3nc(Oc4ccccc4Cl)n(C(C)C)n3)cc2F)ccn1 [Compound 141] | – | response vs control in vivo at 30 mg/kg [1, 2]: 78%; response vs control in vivo at 30 mg/kg [1, 3]: 98% |
| COc1cc(Nc2nc(N3CCCC(C(F)(F)F)C3)n(C(C)C)n2)ccc1-c1ccnc(C)c1 (centres unmarked) [Compound 67] | – | response vs control in vivo at 30 mg/kg [1, 2]: 60%; response vs control in vivo at 30 mg/kg [1, 3]: 89% |
| COc1cc(Nc2nc(Oc3ccccc3Cl)n(C(C)C)n2)ccc1-n1cnc(C)n1 [Compound 4] | 202.7 | – |
| COc1cc(Nc2nc(Oc3ccccc3Cl)n(C(C)C)n2)ccc1-c1ccnc(C)c1 [Compound 69] | – | response vs control in vivo at 30 mg/kg [1, 2]: 63%; response vs control in vivo at 30 mg/kg [1, 3]: 97% |
| COc1cc(Nc2nc(N3CCCC(C(F)(F)F)C3)n(C(C)C)n2)ccc1-n1cnc(C)n1 (racemic) [Compound 59] | 134 | response vs control in vivo at 30 mg/kg [1, 2]: 69%; response vs control in vivo at 30 mg/kg [1, 3]: 94% |
| COc1cc(Nc2nc(Oc3ccccc3Cl)n(C)n2)ccc1-c1ccnc(C)c1 [Compound 61] | 175 | – |
| COc1cc(Nc2nc(Oc3ccccc3Cl)n(CC(OC)OC)n2)ccc1-c1ccnc(C)c1 [Compound 147] | 90.1 | – |
| Cc1cc(-c2ccc(Nc3nc(-c4cccc(C(F)(F)F)c4)n(C(C)C)n3)cc2)ccn1 [Compound 137] | 210.3 | – |
| COc1cc(Nc2nc(Oc3c(F)cccc3Cl)n(C(C)C)n2)ccc1-c1ccnc(C)c1 [Compound 160] | – | response vs control in vivo at 30 mg/kg [1, 2]: 77%; response vs control in vivo at 30 mg/kg [1, 3]: 83% |
| COc1cc(Nc2nc(N3CCOC(c4cccc(C)c4)C3)n(C(C)C)n2)ccc1-n1cnc(C)c1 (centres unmarked) [Compound 58] | – | response vs control in vivo at 30 mg/kg [1, 2]: 88%; response vs control in vivo at 30 mg/kg [1, 3]: 89% |
| COc1cc(Nc2nc(N3C[C@@H](C)O[C@@H](C)C3)n(C(C)C)n2)ccc1-n1cnc(C)c1 [Compound 55] | 189.4 | – |
| COc1cc(Nc2nc(N3CCCC(C(F)(F)F)C3)n(C)n2)ccc1-n1cnc(C)c1 (centres unmarked) [Compound 2] | 199.9 | – |
| Cc1cc(-c2ccc(Nc3nc(-c4cccc(C(F)(F)F)c4)n(C(C)C)n3)cc2F)ccn1 [Compound 138] | 199.6 | – |
| COc1cc(Nc2nc(N3CCCC(C(F)(F)F)C3)n(C(C)C)n2)ccc1-n1cnc(C)n1 (single isomer, unassigned) [Compound 108] | 141.6 | response vs control in vivo at 30 mg/kg [1, 2]: 70%; Aβtotal (% vs Ctrl)_Mean [1, 4]: 94 % vs Ctrl |

| Structure (SMILES) | melting point [°C] | other results |
| --- | --- | --- |
| COc1cc(Nc2nc(N3CCc4ccccc4C3)n(C(C)C)n2)ccc1-n1cnc(C)c1 [Compound 57] | 214.5 | – |
| Cc1cc(F)ccc1Oc1nc(Nc2ccc(-c3ccncc3)cc2)nn1C(C)C [Compound 112] | 204.1 to 205.4 | – |
| COc1cc(Nc2nc(Cc3cccc(C(F)(F)F)c3)n(CCNC(C)=O)n2)ccc1-n1cnc(C)c1 [Compound 1] | 179 | – |
| Cc1cc(-c2ccc(Nc3nc(-c4cccc(C(F)(F)F)c4)n(C)n3)cc2)ccn1 [Compound 60] | 184.2 | – |
| COc1cc(Nc2nc(N3CCCC(C(F)(F)F)C3)n(C(C)C)n2)ccc1-n1cnc(C)n1 (single isomer, unassigned) [Compound 109] | 140.1 | Aβ42 (% vs Ctrl) _Mean [1, 4]: 85 % vs Ctrl; Aβtotal (% vs Ctrl)_Mean [1, 4]: 117 % vs Ctrl |
| COc1cc(Nc2nc(N3CCCC(c4ccccc4)C3)n(C(C)C)n2)ccc1-n1cnc(C)c1 (centres unmarked) [Compound 18] | 164.2 | – |
| Cn1nc(Nc2ccc(-c3ccncc3)cc2)nc1-c1cccc(C(F)(F)F)c1 [Compound 113] | 220.7 | – |
| COc1cc(Nc2nc(Oc3ccccc3Cl)n(C)n2)ccc1-n1cnc(C)c1 [Compound 51] | 210.1 | – |
| COc1nc(Nc2nc(-c3cccc(C(F)(F)F)c3)n(C(C)C)n2)ccc1-n1cnc(C)c1 [Compound 17] | 185.1 | – |
| COc1cc(NC(=O)c2nc(Oc3ccc(F)cc3C)n(C(C)C)n2)ccc1-n1cnc(C)c1 [Compound 9] | 158.4 | – |
| COc1cc(Nc2nc(Oc3cccc(Cl)c3C)n(C(C)C)n2)ccc1-n1cnc(C)n1 [Compound 8] | 157.2 | – |
| COc1cccc(C2CCN(c3nc(Nc4ccc(-n5cnc(C)c5)c(OC)c4)nn3C(C)C)C2)c1 (centres unmarked) [Compound 53] | 169.9 | – |
| COc1cc(Nc2nc(N3CCc4ccccc4C3)n(C)n2)ccc1-n1cnc(C)c1 [Compound 56] | 170.1 | – |
| Cc1cc(-c2ccc(Nc3nc(N4CCOC(C(F)(F)F)C4)n(C(C)C)n3)cc2)ccn1 (centres unmarked) [Compound 133] | – | response vs control in vivo at 30 mg/kg [1, 2]: 67%; response vs control in vivo at 30 mg/kg [1, 3]: 94% |
| COc1cc(Nc2nc(N3CCN(C(=O)OC(C)(C)C)CC3)n(C(C)C)n2)ccc1-c1ccnc(C)c1 [Compound 132] | 177.1 | – |

Further lines, with some results ahead:

| melting point [°C] | Structure (SMILES) | other results |
| --- | --- | --- |
| 142.7 to 144.7 | COc1ccc(-c2ccc(Nc3nc(Oc4ccc(F)cc4C)n(C(C)C)n3)cc2)cn1 [Compound 179] | – |
| 158.4 | COc1cc(Nc2nc(N3CCCN(C(C)=O)CC3)n(C(C)C)n2)ccc1-c1ccnc(C)c1 [Compound 176] | – |
| 145.1 | COc1cc(Nc2nc(Oc3cc(C(F)(F)F)ccc3F)n(C)n2)ccc1-c1ccnc(C)c1 [Compound 168] | – |
| 132.8 to 143.6 | COc1cc(-c2ccc(Nc3nc(Oc4ccc(F)cc4C)n(C(C)C)n3)cc2)ccn1 [Compound 180] | – |
| 138.6 | COc1cc(Nc2nc(Oc3ccccc3Cl)n(CCNC(C)C)n2)ccc1-c1ccnc(C)c1 [Compound 149] | – |
| 169.3 | COc1cc(Nc2nc(Oc3cccc(N4CCOCC4)c3)n(C(C)C)n2)ccc1-c1ccnc(C)c1 [Compound 171] | – |
| 179.2 | Cn1nc(Nc2ccc(-c3ccnc(C(F)(F)F)c3)cc2)nc1-c1cccc(C(F)(F)F)c1 [Compound 178] | – |
| 132.7 | Cc1cc(-c2ccc(Nc3nc(Oc4cc(F)ccc4Cl)n(C(C)C)n3)cc2)ccn1 [Compound 161] | – |
| 165.9 to 166.9 | Cc1cc(F)ccc1Oc1nc(Nc2ccc(-c3ccnc(C(F)(F)F)c3)cc2)nn1C(C)C [Compound 177] | – |
| 125.4 | COc1cc(Nc2nc(Oc3cccc(Cl)c3)n(C(C)C)n2)ccc1-c1ccnc(C)c1 [Compound 158] | – |
| 159.6 | COc1cc(Nc2nc(Oc3ccccc3C(F)(F)F)n(C)n2)ccc1-c1ccnc(C)c1 [Compound 166] | – |
| 222.6 | Cc1cc(-c2ccc(Nc3nc(Oc4c(C)cccc4Cl)n(C(C)C)n3)cc2)ccn1 [Compound 155] | – |
| 172.7 | COc1cc(Nc2nc(Oc3ccc(F)cc3C)n(C(C)C)n2)ccc1-c1ccnc(C)c1 [Compound 163] | – |
| 159.6 | Cc1cc(-c2ccc(Nc3nc(Oc4cccc(Cl)c4C)n(C(C)C)n3)cc2)ccn1 [Compound 157] | – |
| 134.8 | COc1cc(Nc2nc(Oc3ccc(F)cc3C(F)(F)F)n(C(C)C)n2)ccc1-c1ccnc(C)c1 [Compound 169] | – |
| 138.9 | Cc1cc(-c2ccc(Nc3nc(Oc4ccc(F)cc4C)n(C(C)C)n3)cc2)ccn1 [Compound 164] | – |
